According to patent publication US11007232B2, “Use of neural cells derived from human pluripotent stem cells for the treatment of neurodegenerative diseases” (priority 2013, dated 2021):

System: DA neuron precursor cells
Experiment: Differentiation of DA neuron precursor cells into DA neurons with guggulsterone, FACS for TH
Format: cell-based, human
Conditions: guggulsterone 2.5 μM for two weeks; after 30 days of differentiation
Method: The DA neuron precursor cells were plated at 2000 cells/well of a 96-well plate and treated with guggulsterone (GS) at 2.5 μM for two weeks. After 30 days of differentiation, GS-treated neurons appeared mature with elaborate neurite extensions. At this stage, the derived cells expressed not only the major neuronal marker β-III-tubulin (TUJ1), but also the important DA neuron markers tyrosine hydroxylase (TH), the dopamine transporter (Dat), Foxa2, Nurr-1, and Girk2. […] The method specifically involved treating both hESC-H9-NSCs (Invitrogen) and hPSC-NSCs with Purmorphamine (2 μM) and FGF8 (100 ng/mL) in NB medium [NeuroBasal medium, 1× GlutaMAX, 1× N2/B27 Supplement (Invitrogen)] for 7 days. […] Two weeks after treatment with small molecules, all wells were visually observed and scored based on neurite density and dopamine release. For measuring neurite density, cells were fixed with 4% paraformaldehyde and phase contrast images were acquired using Cellavista Cell Imaging System (Roche Applied Science) from randomly selected fields. Neurite density was measured using the Cellavista density software image processing program. Each experimental condition was done in duplicate wells, and at least three independent experiments were conducted to acquire the final results.

## C/C=C1\C(=O)C[C@H]2[C@@H]3CCC4=CC(=O)CC[C@]4(C)[C@H]3CC[C@]12C [guggulsterone]
  cells gated TH positive (FACS analysis): more than 97%
